According to US9107900B2, “Use of dronedarone for the preparation of a medicament for use in the prevention of cardiovascular hospitalization or of morality” (SANOFI, priority 2008, dated 2015):
Where a name gives a salt, the structure may show the parent alone.

Tested on: patients having a history of atrial fibrillation or atrial flutter
Test: prospective, multinational, multicentre, double-blind clinical study versus placebo: cardiovascular hospitalizations and mortality
Format: in vivo, human
Procedure: The patients had to have a history of atrial fibrillation or flutter and/or could be in normal sinus rhythm or in atrial fibrillation or flutter at inclusion.
The patient recruitment was carried out by taking into account the following inclusion criteria:
• 1) One of the following risk factors had to be present: • age equal to or greater than 70 years, • hypertension (taking antihypertensives of at least two different classes), • diabetes, • history of cerebral stroke (transient ischemic event or completed cerebral stroke) or of systemic embolism, • left atrial diameter greater than or equal to 50 mm measured by echocardiography, • left ventricular ejection fraction less than 40%, measured by two-dimensional echography; or • age equal to or above 70, or even above 75, possibly combined with at least one of the risk factors below: • hypertension (taking antihypertensives of at least two different classes), • diabetes, • history of cerebral stroke (transient ischemic event or completed cerebral stroke) or of systemic embolism, • left atrial diameter greater than or equal to 50 mm measured by echocardiography, • left ventricular ejection fraction less than 40%, measured by two-dimensional echography; • 2) availability of an electrocardiogram carried out during the past 6 months in order to document the presence or the history of atrial fibrillation or flutter; • 3) availability of an electrocardiogram carried out during the past 6 months in order to document the presence or absence of normal sinus rhythm. […] Criteria Related to a Cardiac Condition: • Patients in permanent atrial fibrillation • Patients in unstable hemodynamic condition such as acute pulmonary edema within 12 hours prior to start of study medication; cardiogenic shock; treatment with IV pressor agents; patients on respirator; congestive heart failure of stage NYHA IV within the last 4 weeks; uncorrected, hemodynamically significant primary obstructive valvular disease; hemodynamically significant obstructive cardomyopathy; a cardiac operation or revascularization procedure within 4 weeks preceding randomization • Planned major non-cardiac or cardiac surgery or procedures including surgery for valvular heart disease, coronary artery bypass graft (CABG), percutaneous coronary intervention (PCI), or on urgent cardiac transplantation list • Acute myocarditis or constrictive pericarditis • Bradycardia<50 bpm and/or PR-interval>0.28 sec on the last 12-lead ECG. • Significant sinus node disease (documented pause of 3 seconds or more) or 2nd or 3rd degree atrioventricular block (AV-block) unless treated with a pacemaker. Criteria Related to Concomitant Medications:
Need of a concomitant medication that is prohibited in this trial, including the requirement for Vaughan Williams Class I and III anti-arrhythmic drugs, that would preclude the use of study drug during the planned study period, i.e. patients have to stop others antiarrhythmics such as Vaughan Williams Class I and III anti-arrhythmic drugs, for example amiodarone, flecamide, propafenone, quinidine, disopyramide, dofetilide, solatol.
• Plasma potassium<3.5 mmol/l (as anti-arrhythmic drugs can be arrhythmogenic in patients with hypokalemia, this must be corrected prior to randomization. • A calculated GFR at baseline<10 ml/min using the Cockroft Gault formula (GFR [ml/min]=(140−AGE [years]*WEIGHT [kilograms]*CONSTANT/CREATININE [μmol/L], where CONSTANT is […]).
Furthermore, the concomitant use of grapefruit juice and all potent inhibitors of CYP3A4 such as ketoconazole were prohibited.
Treatment was initiated using tablets containing either the placebo or an amount of dronedarone hydrochloride corresponding to 400 mg of dronedarone at a rate of twice a day with the morning and evening meal and more specifically at a rate of one tablet in the morning during or shortly after breakfast and one tablet in the evening during or shortly after dinner. […]

[1] = NYHA class III and LVEF below 0.35, stable, 400 mg BID, N = 24
[2] = NYHA class III congestive heart failure, stable hemodynamic condition, vs placebo
[3] = NYHA class III congestive heart failure, stable, vs placebo
[4] = all patients, treated group 2301 of 4628
[5] = all patients, treated group 2301 of 4628, 400 mg twice a day
[6] = congestive heart failure, LVEF below 0.35, stable, vs placebo
[7] = patients with a structural heart disease
[8] = patients with a structural heart disease, vs placebo
[9] = patients with coronary heart disease (668 treated patients)
[10] = patients with coronary heart disease, vs placebo
[11] = patients with permanent atrial fibrillation/flutter, vs placebo

SMILES: CCCCc1oc2ccc(NS(C)(=O)=O)cc2c1C(=O)c1ccc(OCCCN(CCCC)CCCC)cc1 [dronedarone hydrochloride, 2-n-Butyl-3-[4-(3-di-n-butylaminopropoxy)benzoyl]-5-methylsulphonamidobenzofuran]
- HR (95% CI): cardiovascular hospitalization and death (Left atrium diameter >=50 mm (N 955), vs placebo): 0.77 (0.63, 0.94)
- decrease of cardiovascular hospitalization and death (Left atrium diameter >=50 mm, vs placebo): 23%
- Endpoint's composition: Cardiovascular death [1]: 2
- Endpoint's composition: Cardiovascular hospitalization [1]: 10
- Endpoint's composition: Death from any cause [1]: 3
- Endpoint's composition: Non cardiovascular death [1]: 1
- number of events: death (NYHA class III congestive heart failure, stable (91 treated patients)): 12 events
- number of events: cardiovascular hospitalization and death (NYHA class III congestive heart failure, stable hemodynamic condition (91 treated patients)): 40 events
- decrease of cardiovascular hospitalization or death [2]: 44%
- relative risk: cardiovascular hospitalization or death [2]: 0.56
- decrease of death [3]: 34%
- relative risk: death [3]: 0.66
- HR (95% CI): cardiovascular hospitalization and death (Prior cerebrovascular accident or systemic embolism (N 616), vs placebo): 0.80 (0.62, 1.02)
- decrease of cardiovascular hospitalization and death (Prior cerebrovascular accident or systemic embolism, vs placebo): 20%
- number of arrhythmic deaths (deaths from cardiac arrhythmia) [4]: 26 arrhythmic deaths
- number of cardiovascular deaths [4]: 65 cardiovascular deaths
- number of deaths: mortality from any cause [4]: 116 deaths
- number of events: cardiovascular hospitalizations [4]: 675 events
- number of events: cardiovascular hospitalizations and sudden death [4]: 684 events
- number of events: cardiovascular hospitalizations for atrial fibrillation or supraventricular arrhythmia [4]: 296 events
- number of events: cardiovascular hospitalizations for transient ischemic event or stroke [4]: 43 events
- number of events: hospitalizations associated with class IV congestive heart failure [4]: 42 events
- number of events: hospitalizations associated with congestive heart failure [4]: 112 events
- number of sudden deaths [4]: 14 sudden deaths
- number of events: cardiovascular hospitalizations and cardiovascular mortality [5]: 701 events
- number of events: cardiovascular hospitalizations and mortality (principal judgement criterion) [5]: 734 events
- number of events: death (congestive heart failure, LVEF below 0.35, stable (92 treated patients)): 10 events
- decrease of cardiovascular hospitalization or death [6]: 32%
- decrease of death [6]: 45%
- relative risk: cardiovascular hospitalization or death [6]: 0.68
- relative risk: death [6]: 0.55
- number of events: cardiovascular hospitalization and death (congestive heart failure, left ventricular ejection fraction below 0.35, stable hemodynamic condition (92 treated patients)): 39 events
- reduction in the risk of sudden death (patients not taking diuretics, vs placebo): 34%
- number of events: cardiovascular hospitalizations and mortality (patients who developed permanent atrial fibrillation/flutter): 29 events
- number of events: cardiovascular death [7]: 48 events
- number of events: cardiovascular hospitalization [7]: 452 events
- number of events: cardiovascular hospitalization or death [7]: 486 events
- number of events: death [7]: 77 events
- decrease of cardiovascular deaths [8]: 33%
- decrease of cardiovascular hospitalization [8]: 24%
- decrease of cardiovascular hospitalization or death [8]: 24%
- decrease of death [8]: 24%
- relative risk: cardiovascular death [8]: 0.67
- relative risk: cardiovascular hospitalization [8]: 0.76
- relative risk: cardiovascular hospitalization or death [8]: 0.76
- relative risk: death [8]: 0.76
- number of events: cardiovascular death [9]: 26 events
- number of events: cardiovascular hospitalization [9]: 233 events
- number of events: cardiovascular hospitalization or death [9]: 252 events
- number of events: death [9]: 39 events
- decrease of cardiovascular death [10]: 40%
- decrease of cardiovascular hospitalization [10]: 26%
- decrease of cardiovascular hospitalization or death [10]: 27%
- decrease of death [10]: 36%
- relative risk: cardiovascular death [10]: 0.602
- relative risk: cardiovascular hospitalization [10]: 0.740
- relative risk: cardiovascular hospitalization or death [10]: 0.733
- relative risk: death [10]: 0.643
- reduction in cardiovascular hospitalizations and mortality [11]: 33%
- relative risk: cardiovascular hospitalizations and mortality [11]: 0.67
- patients who developed permanent atrial fibrillation/flutter (treated group 2301 of 4628, p<0.001 vs placebo (294)): 178 patients
- decrease of cardiovascular hospitalization associated with class IV congestive heart failure (vs placebo, all patients): 22%
- decrease of cardiovascular hospitalization associated with congestive heart failure (vs placebo, all patients): 14.5%
- reduction in cardiovascular hospitalizations (vs placebo, all patients): 25.5%
- reduction in cardiovascular hospitalizations and cardiovascular deaths (vs placebo, all patients): 25.5%
- reduction in cardiovascular hospitalizations and sudden deaths (vs placebo, all patients): 25.5%
- reduction in cardiovascular hospitalizations for atrial fibrillation (vs placebo, all patients): 38.4%
- reduction in cardiovascular hospitalizations for transient ischemic event or stroke (vs placebo, all patients): 34%
- reduction in cardiovascular mortality (vs placebo, all patients): 30.2%
- reduction in sudden death (vs placebo, all patients): 59.5%
- reduction in the risk of a first cardiovascular hospitalization not due to a supraventricular arrhythmia (vs placebo, all patients): 14.5%
- reduction of arrhythmic death (vs placebo, all patients): 45%
- reduction of death (any cause) (vs placebo, all patients): 15.6%
- relative risk: arrhythmic death (vs placebo, all patients): 0.55
- relative risk: cardiovascular hospitalizations (vs placebo, all patients): 0.745
- relative risk: cardiovascular hospitalizations and cardiovascular deaths (vs placebo, all patients): 0.745
- relative risk: cardiovascular hospitalizations and sudden deaths (vs placebo, all patients): 0.743
- relative risk: cardiovascular hospitalizations for atrial fibrillation or supraventricular arrhythmia (vs placebo, all patients): 0.616
- relative risk: cardiovascular hospitalizations for transient ischemic event or stroke (vs placebo, all patients): 0.66
- relative risk: cardiovascular mortality (vs placebo, all patients): 0.698
- relative risk: hospitalizations associated with class IV congestive heart failure (vs placebo, all patients): 0.78
- relative risk: hospitalizations associated with congestive heart failure (vs placebo, all patients): 0.855
- relative risk: mortality from any cause (vs placebo, all patients): 0.844
- relative risk: sudden death (vs placebo, all patients): 0.405
- relative risk: cardiovascular hospitalizations and deaths (vs placebo, all patients, 400 mg twice a day): 0.758
- reduction in cardiovascular hospitalizations and deaths (vs placebo, all patients, x=1-relative risk): 24.2%
